Laboratory results taken from patent publication US6974804B2, “Esters” (Unilever Home & Personal Care USA, division of Conopco, Inc., priority 2000, dated 2005).

Assay: Gelling of water-immiscible cosmetic liquids in 96 well glass micro-titre plate
Type: physicochemical
Set-up: key: gel; g4: gel after overnight (18 hrs) storage at 4° C.; g22: gel after overnight (18 hrs) storage at 22° C.; sg: soft gel; sg22: soft gel after overnight (18 hrs) storage at 22° C.; solution; *: the test at 4° C. was not carried out
Settings: for gelling of ISA: 150° C. 2.5 hours, cooled to ambient
Method: In this Example, various samples of esterified cellobiose prepared as in Example 1 or 2 above, were used to gel water-immiscible cosmetic liquids, in accordance with the procedure given below, in which a large number of gels can be prepared simultaneously.
The samples were tested in a 96 well (8×12 rows) glass micro-titre plate. […] About 0.01 or 0.02 g of each esterified cellobiose material was placed into 8 consecutive wells in a single row, so that each well contained approximately 5% or 10% of the cellobiose ester. The balance in each well comprised the cosmetic liquid by addition of approximately 0.2 g of the respective liquid to each cell. A glass lid was placed on top of the plate. The plate was carefully placed in a thermostatically controlled fan-assisted oven set at 150° C. for 2.5 hours. The plate was removed from the oven and allowed to cool naturally to ambient laboratory temperature. The contents of the wells were assessed at the end of the cooling period, by visual inspection and by poking the contents of each well with a micro-spatula. The plates were stored at […] for 18 hours and the contents inspected, and further stored for 18 hours at 4° C. and inspected for a third time. The results obtained in the tests are summarised in Table 5 below, in which the legend is as follows: […]

[1] = 5% cellobiose ester in Fluid AP
[2] = 5% cellobiose ester in Mineral oil
[3] = 5% cellobiose ester in Polydecene
[4] = 10% cellobiose ester in Fluid AP
[5] = 10% cellobiose ester in Mineral oil
[6] = 10% cellobiose ester in Polydecene

SMILES | gelling of DC556 (5% cellobiose ester in DC556) | gelling of Fluid AP [1] | gelling of ISA (5% cellobiose ester in ISA) | gelling of Mineral oil [2] | gelling of Polydecene [3] | gelling of DC556 (10% cellobiose ester in DC556) | gelling of Fluid AP [4] | gelling of ISA (10% cellobiose ester in ISA) | gelling of Mineral oil [5] | gelling of Polydecene [6]
CCCCCCCCCCCC(=O)OC1OC(COC(=O)CCCCCCCC)C(OC2OC(COC(=O)CCCCCCCC)C(OC(=O)CCCCCCCC)C(OC(=O)CCCCCCCC)C2OC(=O)CCCCCCCC)C(OC(=O)CCCCCCCC)C1OC(=O)CCCCCCCC (mixture of isomers) [Ex 1.23] | gel | sg | g22 | g22 | gel | gel | gel | g22 | g22 | gel
CCCCCCCCCC(=O)OCC1OC(OC2C(COC(=O)CCCCCCCCC)OC(OC(=O)CCCCC)C(OC(=O)CCCCCCCCC)C2OC(=O)CCCCCCCCC)C(OC(=O)CCCCCCCCC)C(OC(=O)CCCCCCCCC)C1OC(=O)CCCCCCCCC (mixture of isomers) [Ex 2.11] | gel | gel | gel | gel | gel | gel | gel | gel | gel | gel
CCCCCCCCCC(=O)OCC1OC(OC2C(COC(=O)CCCCCCCCC)OC(OC(C)=O)C(OC(=O)CCCCCCCCC)C2OC(=O)CCCCCCCCC)C(OC(=O)CCCCCCCCC)C(OC(=O)CCCCCCCCC)C1OC(=O)CCCCCCCCC (mixture of isomers) [Ex 2.5] | gel | gel | gel | gel | gel | – | – | – | – | –
CCCCCCCCCCCCCC(=O)OC1OC(COC(=O)CCCCCCCC)C(OC2OC(COC(=O)CCCCCCCC)C(OC(=O)CCCCCCCC)C(OC(=O)CCCCCCCC)C2OC(=O)CCCCCCCC)C(OC(=O)CCCCCCCC)C1OC(=O)CCCCCCCC (mixture of isomers) [Ex 1.24] | gel | gel | g22 | g22 | gel | gel | gel | gel | g22 | gel
CCCCCCCCCCCCCCCC(=O)OC1OC(COC(=O)CCCCCCCCC)C(OC2OC(COC(=O)CCCCCCCCC)C(OC(=O)CCCCCCCCC)C(OC(=O)CCCCCCCCC)C2OC(=O)CCCCCCCCC)C(OC(=O)CCCCCCCCC)C1OC(=O)CCCCCCCCC (mixture of isomers) [Ex 2.13] | gel | gel | gel | gel | gel | gel | gel | gel | gel | gel
CCCCCCCCC(=O)OCC1OC(OC2C(COC(=O)CCCCCCCC)OC(OC(=O)CCCC)C(OC(=O)CCCCCCCC)C2OC(=O)CCCCCCCC)C(OC(=O)CCCCCCCC)C(OC(=O)CCCCCCCC)C1OC(=O)CCCCCCCC (mixture of isomers) [Ex 1.20] | g22 | g22 | sg22 | g22 | gel | g22 | gel | g22 | g22 | gel
CCCCCCCCC(=O)OCC1OC(OC2C(COC(=O)CCCCCCCC)OC(OC(=O)c3ccc(-c4ccccc4)cc3)C(OC(=O)CCCCCCCC)C2OC(=O)CCCCCCCC)C(OC(=O)CCCCCCCC)C(OC(=O)CCCCCCCC)C1OC(=O)CCCCCCCC (mixture of isomers) [Ex 1.15] | gel | gel | gel | gel | gel | gel | gel | gel | gel | gel
CCCCCCCCC(=O)OCC1OC(OC2C(COC(=O)CCCCCCCC)OC(OC(=O)CCCCCC)C(OC(=O)CCCCCCCC)C2OC(=O)CCCCCCCC)C(OC(=O)CCCCCCCC)C(OC(=O)CCCCCCCC)C1OC(=O)CCCCCCCC (mixture of isomers) [Ex 1.22] | g22 | gel | sg22 | sol | gel | g22 | gel | g22 | g22 | gel
CCCCCCCCC(=O)OCC1OC(OC2C(COC(=O)CCCCCCCC)OC(OC(=O)CCC)C(OC(=O)CCCCCCCC)C2OC(=O)CCCCCCCC)C(OC(=O)CCCCCCCC)C(OC(=O)CCCCCCCC)C1OC(=O)CCCCCCCC (mixture of isomers) [Ex 1.18] | gel | gel | sg22 | g22 | gel | gel | gel | gel | gel | gel
CCCCCCCCCC(=O)OCC1OC(OC2C(COC(=O)CCCCCCCCC)OC(OC(C)=O)C(OC(=O)CCCCCCCCC)C2OC(=O)CCCCCCCCC)C(OC(=O)CCCCCCCCC)C(OC(=O)CCCCCCCCC)C1OC(=O)CCCCCCCCC (mixture of isomers) [Ex 2.4] | gel | gel | gel | gel | gel | – | – | – | – | –
CCCCCCCCCC(=O)OCC1OC(OC2C(COC(=O)CCCCCCCCC)OC(OC(C)=O)C(OC(=O)CCCCCCCCC)C2OC(=O)CCCCCCCCC)C(OC(=O)CCCCCCCCC)C(OC(=O)CCCCCCCCC)C1OC(=O)CCCCCCCCC (mixture of isomers) [Ex 2.3] | gel | gel | gel | gel | gel | gel | gel | gel | gel | gel
CCCCCCCCC(=O)OCC1OC(OC2C(COC(=O)CCCCCCCC)OC(OC(=O)CCCCC)C(OC(=O)CCCCCCCC)C2OC(=O)CCCCCCCC)C(OC(=O)CCCCCCCC)C(OC(=O)CCCCCCCC)C1OC(=O)CCCCCCCC (mixture of isomers) [Ex 1.21] | g22 | gel | sg22 | g22 | gel | gel | gel | g22 | g22 | gel
CCCCCCCCCCCCCCCC(=O)OC1OC(COC(=O)CCCCCCCCC)C(OC2OC(COC(=O)CCCCCCCCC)C(OC(=O)CCCCCCCCC)C(OC(=O)CCCCCCCCC)C2OC(=O)CCCCCCCCC)C(OC(=O)CCCCCCCCC)C1OC(=O)CCCCCCCCC (mixture of isomers) [Ex 2.12] | gel | gel | g22 | gel | gel | gel | gel | gel | gel | gel
